Experimental data taken from the supplement of paper PMC8149375.

Tests used:
Details in all cases: treatment: drug + dasatinib (fixed dose, not stated); 5 days
CAKI-1 [1] = experiment: AUC of dose-response viability curve, drug + dasatinib, normalised to DMSO (arbitrary (AUC of normalised viability)); higher = less growth inhibition
Experimental: (§1)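 Primary HTS combination arm: 8 RCC cell lines treated with 8 doses (up to 10 uM) of each library drug plus a fixed dose of dasatinib (dose not stated) for 5 days; viability read by CellTiter-Glo and normalised to DMSO. GI50 was fitted with XLfit, AUC is the area under the dose-response curve, and minimum viability is the lowest fraction of DMSO viability across doses.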

TK-10 [2] = experiment: as above
Experimental: as §1

A498 [3] = experiment: as above
Experimental: as §1

UO-31 [4] = experiment: as above
Experimental: as §1

769-P [5] = experiment: as above
Experimental: as §1

SN12C [6] = experiment: as above
Experimental: as §1

786-O [7] = experiment: as above
Experimental: as §1

ACHN [8] = experiment: as above
Experimental: as §1

CAKI-1 [9] = experiment: GI50 of drug in presence of dasatinib; higher = less potent
Experimental: as §1

TK-10 [10] = experiment: as above
Experimental: as §1

A498 [11] = experiment: as above
Experimental: as §1

UO-31 [12] = experiment: as above
Experimental: as §1

769-P [13] = experiment: as above
Experimental: as §1

SN12C [14] = experiment: as above
Experimental: as §1

786-O [15] = experiment: as above
Experimental: as §1

ACHN [16] = experiment: as above
Experimental: as §1

CAKI-1 [17] = experiment: minimum viability across doses, drug + dasatinib, relative to DMSO (fraction); higher = less growth inhibition
Experimental: as §1

TK-10 [18] = experiment: as above
Experimental: as §1

A498 [19] = experiment: as above
Experimental: as §1

UO-31 [20] = experiment: as above
Experimental: as §1

769-P [21] = experiment: as above
Experimental: as §1

SN12C [22] = experiment: as above
Experimental: as §1

786-O [23] = experiment: as above
Experimental: as §1

ACHN [24] = experiment: as above
Experimental: as §1

Structure (SMILES) | AUC of dose-response viability curve (CAKI-1 [1]) | AUC of dose-response viability curve (TK-10 [2]) | AUC of dose-response viability curve (A498 [3]) | AUC of dose-response viability curve (UO-31 [4]) | AUC of dose-response viability curve (769-P [5]) | AUC of dose-response viability curve (SN12C [6]) | AUC of dose-response viability curve (786-O [7]) | AUC of dose-response viability curve (ACHN [8]) | GI50 of drug (CAKI-1 [9]) | GI50 of drug (TK-10 [10]) | GI50 of drug (A498 [11]) | GI50 of drug (UO-31 [12]) | GI50 of drug (769-P [13]) | GI50 of drug (SN12C [14]) | GI50 of drug (786-O [15]) | GI50 of drug (ACHN [16]) | minimum viability across doses (CAKI-1 [17]) | minimum viability across doses (TK-10 [18]) | minimum viability across doses (A498 [19]) | minimum viability across doses (UO-31 [20]) | minimum viability across doses (769-P [21]) | minimum viability across doses (SN12C [22]) | minimum viability across doses (786-O [23]) | minimum viability across doses (ACHN [24])
NC(=O)Nc1sc(-c2ccc(F)cc2)cc1C(N)=O [TPCA-1] + Cc1nc(Nc2ncc(C(=O)Nc3c(C)cccc3Cl)s2)cc(N2CCN(CCO)CC2)n1 [dasatinib] | 1.81 | 1.94 | 3.33 | 3.28 | 2.22 | 2.35 | 2.09 | 1.7 | 0.458 µM | 0.848 µM | > 10 µM | 3.72 µM | 2.18 µM | > 10 µM | 2.54 µM | 0.346 µM | 0.076 | 0.176 | 0.711 | 0.212 | 0.232 | 0.405 | 0.258 | 0.184
Cc1[nH]c(/C=C2\C(=O)Nc3ccccc32)c(C)c1CCC(=O)O [TSU-68] + Cc1nc(Nc2ncc(C(=O)Nc3c(C)cccc3Cl)s2)cc(N2CCN(CCO)CC2)n1 [dasatinib] | 2.29 | 2.77 | 3.61 | 1.95 | 2.42 | 2.32 | 2.39 | 1.94 | > 10 µM | > 10 µM | > 10 µM | > 10 µM | > 10 µM | > 10 µM | > 10 µM | > 10 µM | 0.595 | 0.74 | 0.699 | 1.07 | 0.66 | 0.609 | 0.61 | 0.512
CC(C)c1ccccc1Cc1cc(C(=O)Nc2ccc(S(=O)(=O)c3ccccc3C(C)(C)C)cc2)c(O)c(O)c1O [TW-37] + Cc1nc(Nc2ncc(C(=O)Nc3c(C)cccc3Cl)s2)cc(N2CCN(CCO)CC2)n1 [dasatinib] | 1.77 | 2.18 | 3.28 | 4.4 | 2.19 | 2.6 | 2.07 | 1.58 | 0.506 µM | 3.06 µM | > 10 µM | 9.77 µM | 1.57 µM | > 10 µM | 1.21 µM | 0.344 µM | 0.0425 | 0.325 | 0.773 | 0.416 | 0.0407 | 0.519 | 0.124 | 0.0767
Nc1cccc(-c2cc3c(Oc4cccc(O)c4)ncnc3[nH]2)c1 [TWS119] + Cc1nc(Nc2ncc(C(=O)Nc3c(C)cccc3Cl)s2)cc(N2CCN(CCO)CC2)n1 [dasatinib] | 2.11 | 2.34 | 3.56 | 3.25 | 1.93 | 2.33 | 2.39 | 1.62 | 1.74 µM | 1.48 µM | > 10 µM | 3.66 µM | 0.798 µM | 3.6 µM | 3.57 µM | 0.287 µM | 0.07 | 0.0898 | 0.653 | 0.0374 | 0.0643 | 0.25 | 0.288 | 0.126
COc1cc2c(N3CCN(C(=O)Nc4ccc(OC(C)C)cc4)CC3)ncnc2cc1OCCCN1CCCCC1 [Tandutinib (MLN518)] + Cc1nc(Nc2ncc(C(=O)Nc3c(C)cccc3Cl)s2)cc(N2CCN(CCO)CC2)n1 [dasatinib] | 2.35 | 2.83 | 2.96 | 3.35 | 2.45 | 2.45 | 2.67 | 2.15 | 4.78 µM | > 10 µM | > 10 µM | > 10 µM | > 10 µM | > 10 µM | > 10 µM | 3.27 µM | 0.384 | 0.647 | 0.705 | 0.527 | 0.555 | 0.644 | 0.523 | 0.387
CNC(=O)c1cc(COc2nnc(Nc3ccc(Cl)cc3)c3ccoc23)ccn1 [Telatinib (BAY 57-9352)] + Cc1nc(Nc2ncc(C(=O)Nc3c(C)cccc3Cl)s2)cc(N2CCN(CCO)CC2)n1 [dasatinib] | 2.19 | 2.45 | 3.74 | 4 | 2.25 | 2.51 | 2.23 | 2.22 | 3.47 µM | 4.84 µM | > 10 µM | > 10 µM | 5.53 µM | > 10 µM | 4 µM | 7.5 µM | 0.188 | 0.334 | 0.784 | 0.989 | 0.355 | 0.673 | 0.0325 | 0.474
CC(=O)Nc1ccc(NC(=S)NC(=O)c2ccc(C(C)(C)C)cc2)cc1 [Tenovin-1] + Cc1nc(Nc2ncc(C(=O)Nc3c(C)cccc3Cl)s2)cc(N2CCN(CCO)CC2)n1 [dasatinib] | 2.19 | 2.2 | 2.71 | 3 | 1.91 | 2.47 | 1.53 | 1.95 | > 10 µM | 2.84 µM | 0.854 µM | 0.825 µM | 0.554 µM | > 10 µM | 0.264 µM | 1.2 µM | 0.498 | 0.342 | 0.0745 | 0.0071 | 0.125 | 0.656 | 0.00416 | 0.385
